The record followed here is article PMC5403781, “Heterologous expression of a Streptomyces cyaneus laccase for biomass modification applications” (AMB Express, 2017).

Read-outs that look alike come from different tables or passages of the source.

For assay [1], the system named is ScLac. Conditions: read-out: ABTS; 100 mM MES pH 5.5, 30 °C; free enzyme, copper-loaded; substrate 5–95 µM.
For assay [2], the system named is T1, ScLac.
T1 construct: C-terminal His6 tag (pET-22b(+), NdeI/XhoI), expressed in E. coli BL21 (DE3) Star; primers encode N-terminus METDIIER and C-terminal HGAGHTG before the LE-His6 tag; copper-loaded with CuSO4 after purification
As to the kind of experiment: spectrophotometric oxidation, […] nm. The assay is classed as biochemical, Streptomyces cyaneus. Conditions: 100 mM MES pH 5.5, 30 °C; free enzyme, copper-loaded; substrate 5–95 µM; read-out: DMP.

The subject of assay [3] is T1, ScLac. As to the kind of experiment: spectrophotometric oxidation, […] nm. The assay is classed as biochemical, Streptomyces cyaneus. The conditions noted are these: 100 mM MES pH 5.5, 30 °C; free enzyme, copper-loaded; substrate 5–95 µM; read-out: Guaiacol.

As for `CCn1c(=NN=c2sc3cc(S(=O)(=O)O)ccc3n2CC)sc2cc(S(=O)(=O)O)ccc21` [ABTS], in the assay with ScLac [1], the Km stood at 33.5 ± 27.9 µM.
As for `COc1cccc(OC)c1O` [DMP, 2,6-dimethoxyphenol], the Km in the assay with ScLac [2] stood at 202 ± 34.8 µM.
Regarding `COc1ccccc1O` [guaiacol], the Km in the assay on ScLac [3] is 5.4 ± 1.9 µM.
